In series [1] the target is T1, Solute carrier family 22 member 6 (Rattus norvegicus, UniProt O35956).
T1 sequence (O35956 whole entry): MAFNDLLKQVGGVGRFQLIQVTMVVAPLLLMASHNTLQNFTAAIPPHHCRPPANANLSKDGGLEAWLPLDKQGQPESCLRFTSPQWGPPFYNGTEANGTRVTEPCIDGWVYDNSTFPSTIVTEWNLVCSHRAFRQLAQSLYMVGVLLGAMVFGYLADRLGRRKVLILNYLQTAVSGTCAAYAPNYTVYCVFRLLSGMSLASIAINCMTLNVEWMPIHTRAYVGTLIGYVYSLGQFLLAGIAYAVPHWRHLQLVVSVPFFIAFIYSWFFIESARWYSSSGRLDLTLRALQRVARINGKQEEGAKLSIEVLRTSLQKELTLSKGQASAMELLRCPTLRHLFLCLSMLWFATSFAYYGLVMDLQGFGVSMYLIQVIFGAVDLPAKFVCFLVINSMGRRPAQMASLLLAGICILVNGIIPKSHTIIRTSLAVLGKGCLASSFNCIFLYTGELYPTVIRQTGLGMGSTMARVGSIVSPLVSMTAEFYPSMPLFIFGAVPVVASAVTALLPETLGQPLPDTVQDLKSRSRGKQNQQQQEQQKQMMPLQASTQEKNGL
The experiment in a line: TP_TRANSPORTER: inhibition of PAH uptake in Xenopus laevis oocytes. It is filed as functional, cell-based, Oocyte.

Series [2] concerns the target T1, Solute carrier family 22 member 6. The experiment in a line: TP_TRANSPORTER: inhibition of DNP-NAC uptake (DNP-NAC: 1 uM, Benzyl-NAC: 1000 uM) in Xenopus laevis oocytes. Format: functional, cell-based. The note with it: oocyte.
Series [3] shares this target. The experiment in a line: TP_TRANSPORTER: inhibition of PAH uptake (PAH: 20 uM, 3-Phenyl-propyl-NAC: 1000 uM) in Xenopus laevis oocytes. The note with it: oocyte. It is filed as functional, cell-based.
For series [4] the target is unchanged. In words: TP_TRANSPORTER: inhibition of DNP-NAC uptake (DNP-NAC: 1 uM, 3-Phenyl-propyl-NAC: 1000 uM) in Xenopus laevis oocytes. It is filed as functional, cell-based. The note with it: oocyte.
Series [5] has the same target. The experiment in a line: TP_TRANSPORTER: inhibition of PAH uptake (PAH: 20 uM, Propyl-NAC: 1000 uM) in Xenopus laevis oocytes. The note with it: oocyte. It is filed as functional, cell-based.
The target is the same in series [6]. In words: TP_TRANSPORTER: inhibition of PAH uptake (PAH: 20 uM, Butyl-NAC: 500 uM) in Xenopus laevis oocytes. As to conditions: oocyte. It is filed as functional, cell-based.
Series [7] shares this target. In words: TP_TRANSPORTER: inhibition of DNP-NAC uptake (DNP-NAC: 1 uM, Propyl-NAC: 1000 uM) in Xenopus laevis oocytes. Format: functional, cell-based. As to conditions: oocyte.
Series [8] shares this target. The experiment in a line: TP_TRANSPORTER: inhibition of DNP-NAC uptake (DNP-NAC: 1 uM, Butyl-NAC: 1000 uM) in Xenopus laevis oocytes. Format: functional, cell-based. As to conditions: oocyte.
For series [9] the target is unchanged. In words: TP_TRANSPORTER: inhibition of PAH uptake (PAH: 20 uM, Dodecyl-NAC: 500 uM) in Xenopus laevis oocytes. It is filed as functional, cell-based. As to conditions: oocyte.
Series [10] shares this target. The experiment in a line: TP_TRANSPORTER: inhibition of DNP-NAC uptake (DNP-NAC: 1 uM, Dodecyl-NAC: 1000 uM) in Xenopus laevis oocytes. Format: functional, cell-based. The note with it: oocyte.
The target is the same in series [11]. In words: TP_TRANSPORTER: inhibition of PAH uptake (PAH: 20 uM, Propanol-NAC: 1000 uM) in Xenopus laevis oocytes. Format: functional, cell-based. The note with it: oocyte.
For series [12] the target is unchanged. The experiment in a line: TP_TRANSPORTER: inhibition of DNP-NAC uptake (DNP-NAC: 1 uM, Propanol-NAC: 1000 uM) in Xenopus laevis oocytes. Format: functional, cell-based. As to conditions: oocyte.
Series [13] has the same target. The experiment in a line: TP_TRANSPORTER: inhibition of PAH uptake (PAH: 20 uM, diCl-vinyl-NAC: 1000 uM) in Xenopus laevis oocytes. It is filed as functional, cell-based. As to conditions: oocyte.
Series [14] shares this target. In words: TP_TRANSPORTER: inhibition of DNP-NAC uptake (DNP-NAC: 1 uM, diCl-vinyl-NAC: 1000 uM) in Xenopus laevis oocytes. Format: functional, cell-based. As to conditions: oocyte.
Series [15] shares this target. In words: TP_TRANSPORTER: inhibition of PAH uptake (PAH: 20 uM, N-acetylnorleucine: 1000 uM) in Xenopus laevis oocytes. The note with it: oocyte. Format: functional, cell-based.
Series [16] shares this target. The experiment in a line: TP_TRANSPORTER: inhibition of DNP-NAC uptake (DNP-NAC: 1 uM, N-acetylnorleucine: 1000 uM) in Xenopus laevis oocytes. The note with it: oocyte. It is filed as functional, cell-based.
Series [17] shares this target. In words: TP_TRANSPORTER: inhibition of PAH uptake (PAH: 20 uM, PentaCl-butadiene-NAC: 500 uM) in Xenopus laevis oocytes. As to conditions: oocyte. Format: functional, cell-based.
For series [18] the target is unchanged. The experiment in a line: TP_TRANSPORTER: inhibition of DNP-NAC uptake (DNP-NAC: 1 uM, PentaCl-butadiene-NAC: 1000 uM) in Xenopus laevis oocytes. Format: functional, cell-based. As to conditions: oocyte.
Series [19] shares this target. In words: TP_TRANSPORTER: inhibition of DNP-NAC uptake (DNP-NAC: 1 uM, NAC: 1000 uM) in Xenopus laevis oocytes. It is filed as functional, cell-based. The note with it: oocyte.
For series [20] the target is unchanged. In words: TP_TRANSPORTER: inhibition of PAH uptake (PAH: 20 uM, Allyl-NAC: 1000 uM) in Xenopus laevis oocytes. As to conditions: oocyte. Format: functional, cell-based.
Series [21] has the same target. The experiment in a line: TP_TRANSPORTER: inhibition of DNP-NAC uptake (DNP-NAC: 1 uM, Allyl-NAC: 1000 uM) in Xenopus laevis oocytes. Format: functional, cell-based. The note with it: oocyte.
Substrate in series [22]: CC(=O)N[C@@H](CSc1ccc([N+](=O)[O-])cc1[N+](=O)[O-])C(=O)O
In words: TP_TRANSPORTER: uptake in Xenopus laevis oocytes. Format: functional, cell-based, Oocyte.

For 14 molecules, Ki, Activity and Km results are on record in ChEMBL document CHEMBL2074452, “Mercapturic acids (N-acetylcysteine S-conjugates) as endogenous substrates for the renal organic anion transporter-1” (Mol Pharmacol, 2001).

By Ki is commonly meant a dissociation constant, usually derived from enzyme kinetics or from competition with a known ligand. Broadly, the Km is the substrate concentration at which the rate is half of its maximum.

With `COC(=O)[C@@H](CSCc1ccccc1)NC(C)=O`, affinity in series [1] was put at a Ki of 0.4 µM. Also, in series [2], the Activity entry is “inhibitor [(at a rough estimate) 30 % of control]”.

As to `CC(=O)NC(CSCCCc1ccccc1)C(=O)O` (stereo not given), the results for the Activity entry in series [3] and in series [4] were “inhibitor [(at a rough estimate) 5 % of control]” and “inhibitor [(at a rough estimate) 10 % of control]”, respectively.

As for `CCCCSCC(NC(C)=O)C(=O)O` (stereo not given), the Activity result was “inhibitor [(at a rough estimate) 10 % of control]” in [5], “inhibitor [(at a rough estimate) 5 % of control]” in series [6], “inhibitor [(at a rough estimate) 30 % of control]” in series [7] and “inhibitor [(at a rough estimate) 5 % of control]” in series [8].

`CCCCC/C=C\C\C=C/C=C/C=C/[C@@H](SC[C@H](NC(C)=O)C(=O)O)[C@@H](O)CCCC(=O)O` came in with a Ki in series [1] of 9 µM.

For `CCCCCCCCCCCCSC[C@@H](NC(C)=O)C(=O)O`, the Activity result in series [9] was “inhibitor [(at a rough estimate) 15 % of control]”; in series [10], “inhibitor [(at a rough estimate) <5 % of control]”.

For the molecule `CC(=O)NC(CSCCCO)C(=O)O` (stereo not given), the Activity entry in series [11] was “inhibitor [(at a rough estimate) 5 % of control]”; in [12] it was “inhibitor [(at a rough estimate) 30 % of control]”.

Regarding `CC(=O)N[C@@H](CS/C(Cl)=C\Cl)C(=O)O`, the results for the Activity entry in series [13] and in series [14] were “inhibitor [(at a rough estimate) 5 % of control]” and “inhibitor [(at a rough estimate) 25 % of control]”, respectively.

With `CCCC[C@H](NC(C)=O)C(=O)O`, the Activity result in series [15] was “inhibitor [(at a rough estimate) 15 % of control]”; in series [16], “inhibitor [(at a rough estimate) 35 % of control]”.

`CC(=O)N[C@@H](CSc1ccc([N+](=O)[O-])cc1[N+](=O)[O-])C(=O)O` displayed a Ki in [1] of 1.9 µM.

As for `CC(=O)NC(CS/C(Cl)=C(\Cl)C(Cl)=C(Cl)Cl)C(=O)O` (stereo not given), the values for the Activity result in series [17] and in [18] were “inhibitor [(at a rough estimate) 15 % of control]” and “inhibitor [(at a rough estimate) <5 % of control]”, respectively.

In turn, `CCSC[C@@H](NC(C)=O)C(=O)O` gave an inhibitory constant (Ki) in series [1] of 1.1 µM. That is a single-digit micromolar value.

For the molecule `CC(=O)N[C@@H](CS)C(=O)O` [ACETYLCYSTEINE], the Activity entry in series [19] was “inhibitor [(at a rough estimate) 60 % of control]”.

For `C=CCSCC(NC(C)=O)C(=O)O` (stereo not given), the Activity entry was “inhibitor [(at a rough estimate) 10 % of control]” in series [20] and “inhibitor [(at a rough estimate) 15 % of control]” in [21].

B1: Solute carrier family 22 member 6 (Rattus norvegicus) (protein)
chain: T1 sequence (O35956 whole entry)
For B1, the Km in series [22] was 2 µM.
